Laboratory results: patent publication US8158560B2, “Insecticidal arylpyrroline compounds” (Bayer CropScience AG, priority 2009, dated 2012)

How the values were obtained:
Format in all cases: in vivo
[1] = test system: Bemisia tabacii biotype B; test: Bemisia tabacii spray test (BEMIAR); settings: 100 ppm, 14 dat, rating scheme b324
Experimental: Bemisia tabacii—Spray-Test (BEMIAR)
Insect: Bemisia tabacii biotype B
Plant: Tomato seedlings, 5 leaf stage in vinyl pots of 40 mm diameter
(§1) Solvent pre-mixture: Sorpol® SD: Sorpol® BDB:Dimethylformamide=3:3:14
10 mg a.i. is solved with 0.05 ml solvent pre-mixture. Water for dilution contains RME and AS (1000 ppm each) or 0.1% of spreader. Solutions are diluted at the rate of 1:5 for limit concentration determination.
Procedure: Solutions are sprayed to the plants. After drying treated pots are placed in the greenhouse where breeding BEMIAR for an infection-time of 24 h. Then the plants is placed in the testing room at 25° C. and 50-60% r.h., 16L8D lighting conditions.
(§2) After the specified period of time mortality in % is determined according to the following scheme/criteria: […]

[2] = test system: Nephotettix cincticeps-MR, resistant strain, 3rd-4th instar nymphs; test: Nephotettix cincticeps spray test (NEPHCI); settings: 7 dat
Experimental: Nephotettix cincticeps-Spray Test (NEPHCl)
Insect: Nephotettix cincticeps-MR, resistant strain, 3rd-4th instar nymphs from own culture
Plant: Rice seedlings (Oryza sativa var. Tamanishiki)
Material: ST-method container (200 ml desiccant polystyrene bottle) with a hole in the bottom sealed with metal mesh. The lid has a pit inside to keep desiccant, and it is used to sow rice seeds. The bottle is used upside down as “cover”, the lid with seedling is called “base”. Plastic stand-board with magnet labels to line the ST Bases up (“Stand”)
Solvent pre-mixture: Sorpol® SD: Sorpol® BDB:Dimethylformamide=3:3:14 10 mg a i. is solved with 0.05 ml solvent pre-mixture. Water for dilution contains RME and AS (1000 ppm each) or 0.1% of spreader. Solutions are diluted at the rate of 1:5 for limit concentration determination.
Procedure: On a pit in the center of a base (originally the desiccant space) pieces of paper towel are placed. 20-30 germinated rice seeds are sown on the paper and moistened with water. The base is covered with a plastic cup and kept in an incubator at 30° C. for five days.
The base with rice seedlings is placed on the Stand. Each base is sprayed with the solution.
After drying twelve 3rd-4th instar nymphs of Nephotettix cincticeps-MR are put on the base and confined with the cover. The ST containers on the Stands are kept in the testing room at 25° C. and 50-60% r.h., 16L8D lighting conditions.
After the specified period of time mortality in % is determined by rating according to the following scheme/criteria: Counting living moving insects, calculate mortality in % by the formula: […]

[3] = test system: Plutella xylostella 3rd instar larvae; test: Plutella xylostella spray test (PLUTXY); settings: PLUTMA; 0.8 ppm; 7 dat
Experimental: Plutella xylostella—Spray Test (PLUTXY)
Insect: Plutella xylostella 3rd instar larvae from own culture
Material: A-PET cup, A-PET lids
Plant: Broccoli 5 leaf stage
as §1
10 mg a i. is solved with 0.05 ml solvent pre-mixture
(§3) Water for dilution contains RME and AS (1000 ppm each) or 0.1% of spreader. Solutions are diluted at the rate of 1:5 for limit concentration determination.
Procedure: Broccoli seedlings of 4-5 leaf stage planted in a vinyl pot (9 cm diameter) are sprayed with the solution. After drying half of the leaves of the plants are cut and put into a A-PET cup. Ten larvae of Plutella xylostella L3 are released in the cup and the dish is placed at 25° C. After 4 days another half leaf is cut and added to the dish. After the specified period of time mortality in % is determined according to the figures of mortality used for evaluation. • 1 larva dead: 20% Efficacy • 5 larvae dead: 100% Efficacy Adoxophyes honmai—Test (ADXPFA)

[4] = test system: Myzus persicae-resistant strain, mixed population; test: Myzus persicae spray test (MYZUPE); settings: 4 ppm, 6 dat, rating scheme
Experimental: Myzus persicae—Spray Test (MYZUPE)
Insect: Myzus persicae-resistant strain, mixed population
Plant: Eggplant seedling (Solanum melongena var. Senryo 2gou) 2 leaf age (4-5 weeks after sowing), transplanted into vinyl pots of 60 mm diameter
Solvent pre-mixture: Sorpol® SD: Sorpol® BDB:Dimethylformamide=3:3:14; 10 mg a.i. is solved with 0.05 ml solvent pre-mixture. Water for dilution contains RME and AS (1000 ppm each) or 0.1% of spreader. Solutions are diluted at the rate of 1:5 for limit concentration determination.
Procedure: 1 day before treatment aphids are inoculated onto the testing plants, about 50 aphids per leaf, 100 for 1 pot. A paper label is placed on each pot. Solutions are sprayed directly onto both insects and plants. After drying pots are placed in the greenhouse at 20° C.-25° C. and 50-60% relative humidity.
After the specified period of time the mortality in % is determined and the rate of death is calculated according to the following scheme/criteria: […]

Spodoptera litura = test: Biological Test Example 1: test against tobacco cutworm (Spodoptera litura) larvae, sweet potato leaf dip; settings: foliar, 168 h, active compound concentration 100 ppm, third instar larvae, after 7 days, read-out: insecticidal activity
Experimental: (§4) Unless not mentioned otherwise, the test solutions were prepared as follows:
(§5) Containing as solvent: Dimethylformamide, 3 parts by weight; and as emulsifier: Polyoxyethylene alkyl phenyl ether, 1 part by weight
(§6) To prepare the test solution, 1 part by weight of an active compound is mixed with the above-mentioned amount of solvent containing the above-mentioned amount of emulsifier, and the mixture is diluted with water to the desired concentration.
Test Against Tobacco Cutworm (Spodoptera litura) Larvae
Leaves of sweet potato were immersed in the test solution at the appropriate concentration, and the leaves were dried in air. The leaves were then placed in a petri dish having a diameter of 9 cm, and ten Spodoptera litura at third instar larvae were released therein. The petri dishes were placed in a temperature-controlled chamber at 25° C.
After 2 days and 4 days more sweet potato leaves were added. After 7 days, the number of dead larvae was counted and the insecticidal activity was calculated. An insecticidal activity of 100% means that all larvae were killed, whereas an insecticidal activity of 0% means that no larva was killed. In the current test, the results of two petri dishes for each treatment were averaged.

Aulacophora femoralis = test: Biological Test Example 3: test against cucurbit leaf beetle (Aulacophora femoralis), cucumber leaf dip; settings: foliar, 168 h, active compound concentration 100 ppm, second instar larvae, after 7 days, read-out: insecticidal activity
Experimental: as §4, §5, §6
Test Against Cucurbit Leaf Beetle (Aulacophora femoralis)
Leaves of cucumber were immersed in the test solution at the appropriate concentration, and the leaves were dried in air. The leaves were then put in a plastic cup containing sterilized black soil and five Aulacophora femoralis at second instar larvae were released in the cup. The cups were placed in a temperature-controlled chamber at 25° C. After 7 days, the number of dead larvae was counted, and the insecticidal activity was calculated. An insecticidal activity of 100% means that all larvae were killed, whereas an insecticidal activity of 0% means that no larva was killed.

[5] = test system: organic phosphorus agent- and carbamate agent-resistant Myzus persicae; test: Biological Test Example 4: test against organic phosphorus agent- and carbamate agent-resistant green peach aphid (Myzus persicae), spray on eggplant; settings: active compound concentration 100 ppm; after 7 days
Experimental: as §4, §5, §6
Test Against Organic Phosphorus Agent- and Carbamate Agent Resistant Green Peach Aphid (Myzus persicae)
50 to 100 head of organic phosphorous agent- and carbamate agent-resistant Myzus persicae were inoculated to leaves of eggplant at two-leaf stage, planted in a pot of 6 cm in diameter. After one day, test solution at the appropriate concentration was sprayed thereon in a sufficient amount using a spray gun. After the spraying, the plant pot was placed inside a greenhouse, and after 7 days, the insecticidal rate was calculated.
An insecticidal activity of 100% means that all aphids were killed, whereas an insecticidal activity of 0% means that no aphid was killed.

Tetranychus urticae = test: Biological Test Example 2: test against two-spotted spider mite (Tetranychus urticae), spray on kidney bean; settings: 168 h, active compound concentration 100 ppm, adult mites, after 7 days, read-out: acaricidal activity
Experimental: as §4, §5, §6
Test Against Two-Spotted Spider Mite (Tetranvchus urticae)
50 to 100 adult mites of Tetranychus urticae were inoculated to leaves of kidney bean at two-leaf stage planted in a pot of 6 cm in diameter. After one day, test solution at the appropriate concentration was sprayed thereon in a sufficient amount using a spray gun. After the spraying, the plant pot was placed inside a greenhouse, and after 7 days, the acaricidal activity was calculated. An acaricidal activity of 100% means that all mites were killed, whereas an acaricidal activity of 0% means that no mite was killed.

[6] = test system: Tetranychus urticae-S (sensible strain) mixed population; test: Tetranychus urticae test (TETRUR); settings: 0.16 ppm, 2 dat, rating scheme b334
Experimental: Tetranychus urticae—Test (TETRUR)
Insect: Tetranychus urticae-S (sensible strain) mixed population from own culture
Plant: Kidney bean seedlings (Phaseolus vulgaris var. Serena), 2 leaf stage (1 week after sowing)
as §1
(§7) 10 mg a i. is solved with 0.05 ml solvent pre-mixture.
as §3
Procedure: 1 day before treatment the apex parts of testing plants are pruned. Mites are inoculated onto the testing plants, about 20 adults per leaf, 40 adults and some nymphs for 1 pot. A paper label is placed on each pot. The solution is sprayed onto mites and plants. After drying pots are placed in the greenhouse, temperature 20° C.-25° C.
as §2

[7] = test system: Spodoptera litura L2 stage; test: Spodoptera litura root soaking test (PRODLI); settings: 20 ppm, 4 dat
Experimental: Spodoptera litura—Root Soaking Test (PRODLI)
Insect: Spodoptera litura L2 stage;
Material: Culture media bottles for hydroponics: Plastic (A-PET) cups for test, square type;
Plant: Broccoli 5 leaf stage (ca. 12 cm high), soil around the roots was washed off just before the test;
Solvent pre-mixture “Sorpol SD” for root soaking test;
Sorpol SD: Sorpol BDB:Dimethylformamide=3:3:140
Procedure: Test solutions are prepared in the bottles at the appropriate concentration. The test plant root is dipped into the test solution in the bottle and kept in a test room. After 3 days, ⅓ part of the leaves of the plants is cut and put into the A-PET cup.
Into each test cup five larvae L2 are released, the cup is covered with a lid and stored at 25° C. and at a relative humidity of 50-60% and under 16L8D lighting conditions.
After the specified period of time the mortality in % is determined and the rate of death is calculated.

Panonychus citri = Panonychus citri spray test (METTCI); settings: 4 ppm, 7 dat, rating scheme b306
Experimental: Panonychus citri—Spray Test (METTCI)
Plant: Citrus plants, ca 8 cm height
as §1, §7, §3
Procedure: 1 day before treatment mites were inoculated onto potted citrus plants, about 50 adults and some nymphs for 1 pot. The test solution is sprayed directly onto both mites and plants. After drying pots are stored at 25° C.
After the specified period of time mortality in % is determined by rating according to the following scheme/criteria.

[8] = test system: Aulacophora femoralis 2nd instar larvae; test: Aulacophora femoralis spray test (AUACFE); settings: 0.8 ppm, 6 dat, rating scheme b297
Experimental: Aulacophora femoralis—Spray Test (AUACFE)
Insect: Aulacophora femoralis 2nd instar larvae from own culture;
Material: PET cups with 5 ml soil and A-PET lids
Plant: Cucumber (Cucumis sativus var. Hanshiro), cotyledon stage; 1 plant per pot;
Solvent pre-mixture: Sorpol® SD: Sorpol® BDB:Dimethylformamide=3:3:14;
10 mg a.i. solved with 0.05 ml solvent pre-mixture. Water for dilution contains RME and AS (1000 ppm each) or 0.1% of spreader. Solutions are diluted at the rate of 1:5 for limit concentration determination.
Procedure: Solutions are sprayed onto a plant. After drying, plants are cut and put on the soil in the testing cup. Five larvae L2 are released into each testing cup.
The testing cup is covered with the lid and stored at 25° C. and 50-60% r.h., 16L8D lighting conditions.
After the specified period of time, the mortality in % is determined according to the following scheme/criteria: […]

Row | Compound | Efficacy/day(s) of treatment [1] [%/14 dat] | Efficacy/day(s) of treatment ([2]; 100 ppm) [%/7 dat] | Efficacy/day(s) of treatment [3] [%/7 dat] | Efficacy/day(s) of treatment [4] [%/6 dat] | Efficacy/day(s) of treatment [6] [%/2 dat] | Efficacy/day(s) of treatment [7] [%/4 dat] | further results
1 | Cc1cc(C2=NOC(c3cc(C(F)(F)F)cc(C(F)(F)F)c3)(C(F)(F)F)C2)ccc1C(=O)NC1CS(=O)(=O)C1 (stereo not drawn) [Compound C-1, reference compound] | 60 | 70 | 80 | 60 |  |  | 
2 | Cc1cc(C2=NCC(c3cc(C(F)(F)F)cc(C(F)(F)F)c3)(C(F)(F)F)C2)ccc1C(=O)NC1CS(=O)(=O)C1 (stereo not drawn) [Compound 1-21, 4-{3-[3,5-Bis(trifluoromethyl)phenyl]-3-(trifluoromethyl)-3,4-dihydro-2H-pyrrol-5-yl}-N-(1,1-dioxidothietan-3-yl)-2-methylbenzamide] | 98 | 90 | 100 | 98 |  |  | pest or weed control at 100 ppm (Spodoptera litura): 100%; pest or weed control at 100 ppm (Aulacophora femoralis): 100%; insecticidal activity [5]: 100%; pest or weed control at 100 ppm (Tetranychus urticae): 100%
3 | Cc1cc(C2=NCC(c3cc(Cl)cc(Cl)c3)(C(F)(F)F)C2)ccc1C(=O)NC1CSC1 (stereo not drawn) [ExNo A49 of WO 2010/020522] |  |  |  |  | 90 | 100 | 
4 | Cc1cc(C2=NOC(c3cc(Cl)cc(Cl)c3)(C(F)(F)F)C2)ccc1C(=O)NC1CSC1 (stereo not drawn) [ExNo A-4 of WO 2009/080250] |  |  |  |  | 60 | 80 | 
5 | Cc1cc(C2=NOC(c3cc(C(F)(F)F)cc(C(F)(F)F)c3)(C(F)(F)F)C2)ccc1C(=O)NC1CSC1 (stereo not drawn) [ExNo A21 of WO 2009/080250, reference compound] | 60 |  |  | 60 |  |  | Efficacy/day(s) of treatment (Panonychus citri): 0%/7 dat; Efficacy/day(s) of treatment ([2]; 20 ppm): 0%/7 dat; Efficacy/day(s) of treatment [8]: 50%/6 dat
